Laboratory results reported in patent US6287572A, “Anti-HIV peptides and proteins” (Oxford Biomedica (UK) Limited, priority 1997, dated 2001).
“Also recorded” adds a separate entry of the source.

How the values were obtained:
[1] = tested on: HIV-1; settings: Neidrig et al 1994; cited from earlier work
[2] = tested on: HIV-1IIIB virus; test: Peptide inhibition experiment, U937 culture; assay type: cell-based; settings: peptide 200 mg/ml, RT activity in supernatant
Procedure: (§1) A series of overlapping p17 derived 1 5mer peptides were used. The peptides were dissolved in phosphate-buffered saline pH 7.0 and used at a final concentration of 200 mg/ml. For each peptide, 2×10^5 U937 cells were pelleted and resuspended in […] media containing […] of a stock of HIV-1IIIB virus (giving a multiplicity of infection of 0.25) and 200 mg/ml of the appropriate peptide. Following incubation for two days, the cells were pelleted and resuspended in fresh media containing peptide. After a further three days incubation, […] of the culture was removed and added to 1×10^5 C8166 cells in a total volume of […] with the appropriate peptide. Samples of both the U937 and C8166 culture supernatants were taken after a further two and three days incubation and assayed for RT activity. In addition, the C8166 cells were visually inspected for the appearance of syncytia on day three.

[3] = tested on: HIV-1IIIB virus; test: Peptide inhibition experiment, C8166 culture; assay type: cell-based; settings: peptide 200 mg/ml, RT activity in supernatant
Procedure: as §1

| Substance | inhibitory activity of peptide in previous studies [1] | RT titer, U937 day 7 ([2]; day 7) | RT titer, U937 day 8 ([2]; day 8) | RT titer, C8166 day 2 ([3]; day 2) | RT titer, C8166 day 3 ([3]; day 3) |
| --- | --- | --- | --- | --- | --- |
| 23 to 46: p17 peptide spanning residues 23 to 46 of previous studies (Neidrig et al 1994) (GGKKKYKLKHIVWASRELERFAVN; Matrix protein p17; UniProt P04591 24-47, looked up, fragment) | no inhibitory activity; also recorded: no inhibitory effect |  |  |  |  |
| 51-65: p17-derived 15mer peptide, corresponding p17 residues 51-65 (ETSEGCRQILGQLQP; Matrix protein p17; UniProt P04591 52-66, looked up, fragment) [Mutant 51-65] |  | 14.8 × 10^3 cpm/ml | 47.0 × 10^3 cpm/ml | 19.9 × 10^3 cpm/ml | 33.6 × 10^3 cpm/ml |
| 47 to 59: inhibitory p17 peptide spanning residues 47 to 59 of previous studies (Neidrig et al 1994) (PGLLETSEGCRQI; Matrix protein p17; UniProt P04591 48-60, looked up, fragment) | inhibitory |  |  |  |  |
